Where “and” joins values, the source holds several entries; their conditions need not be identical. Equal entries are not always repeated. Each block holds one compound with its values, some of them ahead of it.
Test system: 883617-216-R-J1-PDC complex spheroids, growth, % test/control
Experiment: Anticancer human tumor 883617-216-R-J1-PDC patient-derived bladder carcinoma cell line growth inhibition [AhR]
Details: for viability, T/C: stronger effect = lower value
Method in brief: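 Complex tumor spheroids co-cultured with HUVEC and human MSC stroma; AhR antagonists tested in combination with standard-of-care and investigational agents. Top concentration at or near clinical Cmax (else 10 microM), half-log dilutions; growth expressed as percent test/control.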

[1] = curve of first compound, second compound 0.1 µM
[2] = curve of first compound, second compound 0.316 µM
[3] = curve of first compound, second compound 1 µM
[4] = curve of first compound, second compound 3.16 µM
[5] = curve of first compound, second compound 10 µM
[6] = second compound 0.1 µM, first compound 0.00316 µM
[7] = second compound 0.1 µM, first compound 0.01 µM
[8] = second compound 0.1 µM, first compound 0.0316 µM
[9] = second compound 0.1 µM, first compound 0.1 µM
[10] = second compound 0.1 µM, first compound 0.316 µM
[11] = second compound 0.1 µM, first compound 1 µM
[12] = second compound 0.316 µM, first compound 0.00316 µM
[13] = second compound 0.316 µM, first compound 0.01 µM
[14] = second compound 0.316 µM, first compound 0.0316 µM
[15] = second compound 0.316 µM, first compound 0.1 µM
[16] = second compound 0.316 µM, first compound 0.316 µM
[17] = second compound 0.316 µM, first compound 1 µM
[18] = second compound 1 µM, first compound 0.00316 µM
[19] = second compound 1 µM, first compound 0.01 µM
[20] = second compound 1 µM, first compound 0.0316 µM
[21] = second compound 1 µM, first compound 0.1 µM
[22] = second compound 1 µM, first compound 0.316 µM
[23] = second compound 1 µM, first compound 1 µM
[24] = second compound 3.16 µM, first compound 0.00316 µM
[25] = second compound 3.16 µM, first compound 0.01 µM
[26] = second compound 3.16 µM, first compound 0.0316 µM
[27] = second compound 3.16 µM, first compound 0.1 µM
[28] = second compound 3.16 µM, first compound 0.316 µM
[29] = second compound 3.16 µM, first compound 1 µM
[30] = second compound 10 µM, first compound 0.00316 µM
[31] = second compound 10 µM, first compound 0.01 µM
[32] = second compound 10 µM, first compound 0.0316 µM
[33] = second compound 10 µM, first compound 0.1 µM
[34] = second compound 10 µM, first compound 0.316 µM
[35] = second compound 10 µM, first compound 1 µM
[36] = second compound 0.1 µM, first compound 3.16 µM
[37] = second compound 0.1 µM, first compound 10 µM
[38] = second compound 0.316 µM, first compound 3.16 µM
[39] = second compound 0.316 µM, first compound 10 µM
[40] = second compound 1 µM, first compound 3.16 µM
[41] = second compound 1 µM, first compound 10 µM
[42] = second compound 3.16 µM, first compound 3.16 µM
[43] = second compound 3.16 µM, first compound 10 µM
[44] = second compound 10 µM, first compound 3.16 µM
[45] = second compound 10 µM, first compound 10 µM
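Also: exposure lasted 7 days after dosing on day 3 of spheroid growth.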

IC50 [1]: > 1000 nM | IC50 [2]: > 1000 nM | IC50 [3]: > 1000 nM | IC50 [4]: > 1000 nM | IC50 [5]: < 3.16 nM
SMILES: CC1COCCN1c1cc(-c2ccnn2C)c2ccnc(-c3ccn[nH]3)c2n1 (stereo unspecified) + Cc1cncc(-c2nc(NCCc3c[nH]c4ccccc34)c3ncn(C(C)C)c3n2)c1
viability, T/C [6]: 94.9% | viability, T/C [7]: 92.8% | viability, T/C [8]: 83.7% | viability, T/C [9]: 76.5% | viability, T/C [10]: 61.5% | viability, T/C [11]: 53.9% | viability, T/C [12]: 101% | viability, T/C [13]: 103% | viability, T/C [14]: 98.5% | viability, T/C [15]: 77.3% | viability, T/C [16]: 60.2% | viability, T/C [17]: 54.5% | viability, T/C [18]: 96.1% | viability, T/C [19]: 107% | viability, T/C [20]: 95.9% | viability, T/C [21]: 76% | viability, T/C [22]: 70.3% | viability, T/C [23]: 60.5% | viability, T/C [24]: 115% | viability, T/C [25]: 113% | viability, T/C [26]: 117% | viability, T/C [27]: 87.6% | viability, T/C [28]: 72.7% | viability, T/C [29]: 55.9% | viability, T/C [30]: 45.3% | viability, T/C [31]: 50.8% | viability, T/C [32]: 51.5% | viability, T/C [33]: 39.8% | viability, T/C [34]: 30.9% | viability, T/C [35]: 27.4%

IC50 [1]: 393 nM | IC50 [2]: 437 nM | IC50 [3]: 404 nM | IC50 [4]: 400 nM | IC50 [5]: < 31.6 nM
SMILES: COc1cccc2c1C(=O)c1c(O)c3c(c(O)c1C2=O)CC(O)(C(=O)CO)CC3OC1CC(N)C(O)C(C)O1 (stereo unspecified) + Cc1cncc(-c2nc(NCCc3c[nH]c4ccccc34)c3ncn(C(C)C)c3n2)c1
viability, T/C [8]: 74.5% | viability, T/C [9]: 66.3% | viability, T/C [10]: 57.9% | viability, T/C [11]: 18.8% | viability, T/C [36]: 0.11% | viability, T/C [37]: 0.16% | viability, T/C [14]: 65.3% | viability, T/C [15]: 62.6% | viability, T/C [16]: 64.4% | viability, T/C [17]: 14% | viability, T/C [38]: 0.05% | viability, T/C [39]: 0.15% | viability, T/C [20]: 81.8% | viability, T/C [21]: 74.5% | viability, T/C [22]: 62.1% | viability, T/C [23]: 5.5% | viability, T/C [40]: 0.05% | viability, T/C [41]: 1.21% | viability, T/C [26]: 77.1% | viability, T/C [27]: 75% | viability, T/C [28]: 62.7% | viability, T/C [29]: 0.89% | viability, T/C [42]: 0.17% | viability, T/C [43]: 1.17% | viability, T/C [32]: 41.7% | viability, T/C [33]: 37.4% | viability, T/C [34]: 34.3% | viability, T/C [35]: 0.82% | viability, T/C [44]: 0.12% | viability, T/C [45]: 0.16%

IC50 (curve of compound): 2130 nM and 2250 nM and 2170 nM
SMILES: O=C(C=Cc1cccc(S(=O)(=O)Nc2ccccc2)c1)NO
viability, T/C (compound 0.0316 µM): 107% and 95.8% and 72.5% | viability, T/C (compound 0.1 µM): 112% and 96.7% and 77.7% | viability, T/C (compound 0.316 µM): 92.8% and 76% and 74.6% | viability, T/C (compound 1 µM): 68.9% and 73.4% and 93.9% | viability, T/C (compound 3.16 µM): 40.8% (2×) and 35.7% | viability, T/C (compound 10 µM): 2.89% and 2.67% and 2.49%

IC50 (curve of compound): > 100 nM
SMILES: CC[C@@]1(O)C(=O)OCc2c1cc1n(c2=O)Cc2cc3c(CN(C)C)c(O)ccc3nc2-1
viability, T/C (compound 0.000316 µM): 92.8% and 94.7% and 101% | viability, T/C (compound 0.001 µM): 108% and 116% and 99.4% | viability, T/C (compound 0.00316 µM): 90.1% and 89.1% and 94.2% | viability, T/C (compound 0.01 µM): 88.6% and 87.3% and 75.8% | viability, T/C (compound 0.0316 µM): 71% and 95.2% and 80.3% | viability, T/C (compound 0.1 µM): 67.6% and 80.6% and 70.9%

IC50 [1]: > 1000 nM | IC50 [2]: > 1000 nM | IC50 [3]: > 1000 nM | IC50 [4]: > 1000 nM | IC50 [5]: > 1000 nM
SMILES: Nc1ncn(C2CC(O)C(CO)O2)c(=O)n1 (stereo unspecified) + Cc1ccccc1N=Nc1ccc(NC(=O)c2ccnn2C)c(C)c1
viability, T/C [6]: 89.3% | viability, T/C [7]: 94.7% | viability, T/C [8]: 83.6% | viability, T/C [9]: 82.8% | viability, T/C [10]: 75.5% | viability, T/C [11]: 73.1% | viability, T/C [12]: 82.9% | viability, T/C [13]: 83.5% | viability, T/C [14]: 87.8% | viability, T/C [15]: 80.1% | viability, T/C [16]: 78.8% | viability, T/C [17]: 76.6% | viability, T/C [18]: 79.9% | viability, T/C [19]: 88.1% | viability, T/C [20]: 101% | viability, T/C [21]: 77.9% | viability, T/C [22]: 67.6% | viability, T/C [23]: 77.1% | viability, T/C [24]: 71.1% | viability, T/C [25]: 84.2% | viability, T/C [26]: 75.8% | viability, T/C [27]: 72.8% | viability, T/C [28]: 79.6% | viability, T/C [29]: 81.2% | viability, T/C [30]: 84.7% | viability, T/C [31]: 79.2% | viability, T/C [32]: 74.3% | viability, T/C [33]: 77.7% | viability, T/C [34]: 74.2% | viability, T/C [35]: 77.9%

IC50 (curve of compound): 436 nM and 420 nM and 211 nM
SMILES: COc1cccc2c1C(=O)c1c(O)c3c(c(O)c1C2=O)CC(O)(C(=O)CO)CC3OC1CC(N)C(O)C(C)O1 (stereo unspecified)
viability, T/C (compound 0.0316 µM): 70.3% and 65.3% and 99.7% | viability, T/C (compound 0.1 µM): 65.2% and 60.5% and 54.1% | viability, T/C (compound 0.316 µM): 60.8% and 58.8% and 62.2% | viability, T/C (compound 1 µM): 22.4% and 23% and 6.26% | viability, T/C (compound 3.16 µM): 0.22% and 0.36% and 3.97% | viability, T/C (compound 10 µM): 0.22% and 0.16% and 3.6%

IC50 [1]: > 10000 nM | IC50 [2]: > 10000 nM | IC50 [3]: > 10000 nM | IC50 [4]: > 10000 nM | IC50 [5]: > 10000 nM
SMILES: CC(C)c1c(-c2ccccc2)nc2c(C#N)c[nH]n2c1=O + Cc1ccccc1N=Nc1ccc(NC(=O)c2ccnn2C)c(C)c1
viability, T/C [8]: 91.7% | viability, T/C [9]: 101% | viability, T/C [10]: 85.9% | viability, T/C [11]: 103% | viability, T/C [36]: 101% | viability, T/C [37]: 93.7% | viability, T/C [14]: 99.1% | viability, T/C [15]: 94.6% | viability, T/C [16]: 86.6% | viability, T/C [17]: 93.9% | viability, T/C [38]: 86% | viability, T/C [39]: 91.1% | viability, T/C [20]: 84% | viability, T/C [21]: 85% | viability, T/C [22]: 87.7% | viability, T/C [23]: 84.8% | viability, T/C [40]: 91% | viability, T/C [41]: 91.6% | viability, T/C [26]: 87.7% | viability, T/C [27]: 89.6% | viability, T/C [28]: 72.8% | viability, T/C [29]: 84.5% | viability, T/C [42]: 82.9% | viability, T/C [43]: 77.7% | viability, T/C [32]: 75.4% | viability, T/C [33]: 78.3% | viability, T/C [34]: 82.1% | viability, T/C [35]: 79.3% | viability, T/C [44]: 75.9% | viability, T/C [45]: 82.9%

— PubChem BioAssay AID1919004 (Molecular Pharmacology Branch, DTP, NCI, 2023)
